The assay has as its target T1, Solute carrier family 12 member 5 (Homo sapiens, UniProt Q9H2X9).
T1 sequence (Q9H2X9 whole entry): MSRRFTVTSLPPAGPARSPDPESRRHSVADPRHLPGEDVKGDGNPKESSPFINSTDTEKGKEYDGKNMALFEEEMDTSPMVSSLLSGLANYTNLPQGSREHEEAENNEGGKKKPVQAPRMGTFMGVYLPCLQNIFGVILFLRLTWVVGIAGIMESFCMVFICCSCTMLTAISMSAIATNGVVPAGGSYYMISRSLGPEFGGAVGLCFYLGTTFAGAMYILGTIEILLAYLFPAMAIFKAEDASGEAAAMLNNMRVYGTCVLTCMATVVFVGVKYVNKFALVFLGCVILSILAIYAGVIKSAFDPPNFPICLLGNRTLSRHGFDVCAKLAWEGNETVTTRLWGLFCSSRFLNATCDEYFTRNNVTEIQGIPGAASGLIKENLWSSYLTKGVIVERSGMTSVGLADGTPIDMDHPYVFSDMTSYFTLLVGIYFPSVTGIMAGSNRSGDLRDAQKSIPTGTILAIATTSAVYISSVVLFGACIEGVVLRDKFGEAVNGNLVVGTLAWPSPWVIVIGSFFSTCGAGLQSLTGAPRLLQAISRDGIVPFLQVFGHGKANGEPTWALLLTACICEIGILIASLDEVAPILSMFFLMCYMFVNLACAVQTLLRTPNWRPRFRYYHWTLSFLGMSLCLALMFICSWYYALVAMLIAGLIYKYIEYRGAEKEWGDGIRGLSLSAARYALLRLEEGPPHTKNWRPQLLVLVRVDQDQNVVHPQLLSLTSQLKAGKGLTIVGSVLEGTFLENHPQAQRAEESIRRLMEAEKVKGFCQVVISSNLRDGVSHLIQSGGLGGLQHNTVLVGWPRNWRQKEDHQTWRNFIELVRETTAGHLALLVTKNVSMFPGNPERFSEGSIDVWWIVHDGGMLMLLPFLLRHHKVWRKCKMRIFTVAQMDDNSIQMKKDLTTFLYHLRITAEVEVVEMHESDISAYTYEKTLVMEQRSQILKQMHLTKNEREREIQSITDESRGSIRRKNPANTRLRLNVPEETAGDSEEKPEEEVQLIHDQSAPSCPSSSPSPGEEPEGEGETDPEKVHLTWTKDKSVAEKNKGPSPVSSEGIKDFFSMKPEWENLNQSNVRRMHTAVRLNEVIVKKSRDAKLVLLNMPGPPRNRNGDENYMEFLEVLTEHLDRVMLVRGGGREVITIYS
Put plainly: KCC2 and NKCC1 inhibition by rubidium flux, cell-based, NKCC1 counter-screen (AID 1734). For orientation: A counterscreen serves to expose hits that act by an unwanted route or on another target.

What is called IC50 is the concentration that gives 50% inhibition. Higher therefore signals a need for much substance. On to `CCOc1ccc(-n2c(O)c3c(c2O)C(C=Cc2ccccc2)c2sc(=O)[nH]c2S3)cc1` (stereo unspecified), for which inhibition was half-maximal at 0.3 µM (IC50).
